In general, inhibition refers to the percentage by which the read-out fell short of the control. Higher therefore signals a response far below the control. Usually EC50 stands for the concentration giving half of the maximal effect. By IC50 is commonly meant the concentration that inhibits the measured activity by half.

The record followed here is ChEMBL document CHEMBL5625260, “Novel xanthone derivatives as potent sirtuin 2 inhibitors” (Bioorg Med Chem Lett, 2024).

The nature of test [1]: Antioxidant activity of compound at 150 to 1000 uM by DPPH assay. Type of test: functional. To be noted: dose 150-1000 µM. (In general: The DPPH test is a chemical assay of radical scavenging.)
The target of test [2] is T1, NAD-dependent protein deacetylase sirtuin-2 (Homo sapiens) (UniProt Q8IXJ6).
T1 sequence (whole entry): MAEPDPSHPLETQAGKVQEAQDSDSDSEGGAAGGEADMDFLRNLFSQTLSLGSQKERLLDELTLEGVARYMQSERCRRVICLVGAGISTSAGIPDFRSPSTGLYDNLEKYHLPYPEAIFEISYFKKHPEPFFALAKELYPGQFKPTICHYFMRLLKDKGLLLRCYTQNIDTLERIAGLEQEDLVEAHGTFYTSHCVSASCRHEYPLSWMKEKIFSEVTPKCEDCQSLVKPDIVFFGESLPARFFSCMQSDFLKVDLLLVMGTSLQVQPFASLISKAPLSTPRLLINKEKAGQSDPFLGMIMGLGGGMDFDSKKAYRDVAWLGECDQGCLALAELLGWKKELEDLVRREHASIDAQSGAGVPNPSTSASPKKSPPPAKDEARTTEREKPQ
In words: Inhibition of SIRT2 (unknown origin) at 50 uM relative to control.

Test [3] has as its target T2, NAD-dependent protein deacetylase sirtuin-1 (Homo sapiens) (UniProt Q96EB6).
T2 sequence (whole entry): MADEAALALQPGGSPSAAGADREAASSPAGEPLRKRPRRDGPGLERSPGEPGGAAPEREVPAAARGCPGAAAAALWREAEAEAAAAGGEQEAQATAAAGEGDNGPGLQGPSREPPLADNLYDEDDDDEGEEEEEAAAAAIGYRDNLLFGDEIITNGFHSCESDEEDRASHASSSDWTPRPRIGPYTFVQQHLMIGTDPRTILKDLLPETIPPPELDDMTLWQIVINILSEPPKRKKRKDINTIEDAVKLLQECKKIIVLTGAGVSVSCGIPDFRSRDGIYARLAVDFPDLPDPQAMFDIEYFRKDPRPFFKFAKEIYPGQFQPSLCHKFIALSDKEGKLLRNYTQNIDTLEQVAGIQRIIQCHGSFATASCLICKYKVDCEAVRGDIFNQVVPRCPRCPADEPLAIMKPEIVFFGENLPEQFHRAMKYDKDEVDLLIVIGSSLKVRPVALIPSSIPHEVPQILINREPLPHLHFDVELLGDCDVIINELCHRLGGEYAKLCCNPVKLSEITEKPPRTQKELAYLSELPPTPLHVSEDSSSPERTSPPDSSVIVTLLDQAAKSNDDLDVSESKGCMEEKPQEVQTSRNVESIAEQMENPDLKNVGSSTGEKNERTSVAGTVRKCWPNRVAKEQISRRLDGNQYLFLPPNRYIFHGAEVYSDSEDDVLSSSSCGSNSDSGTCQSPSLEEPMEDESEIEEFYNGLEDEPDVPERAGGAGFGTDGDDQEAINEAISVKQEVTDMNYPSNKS
Description: Activation of SIRT1 (unknown origin) at 50 uM relative to control.

Test [4] has as its target T3, NAD-dependent protein deacetylase sirtuin-1 (Homo sapiens, UniProt Q96EB6).
T3 sequence (Q96EB6 whole entry): T2 sequence (whole entry)
Description: Activation of N-terminal His-tagged recombinant human SIRT1 (193 to end residues) expressed in baculovirus infected Sf9 insect cells incubated for 15 to 45 mins by luminescence based assay.

A short description of test [5]: Antioxidant activity of compound at 500 uM by DPPH assay relative to control. In kind it is functional.
Test [6] addresses T4, NAD-dependent protein deacetylase sirtuin-3, mitochondrial (Homo sapiens, UniProt Q9NTG7).
T4 sequence (Q9NTG7 whole entry): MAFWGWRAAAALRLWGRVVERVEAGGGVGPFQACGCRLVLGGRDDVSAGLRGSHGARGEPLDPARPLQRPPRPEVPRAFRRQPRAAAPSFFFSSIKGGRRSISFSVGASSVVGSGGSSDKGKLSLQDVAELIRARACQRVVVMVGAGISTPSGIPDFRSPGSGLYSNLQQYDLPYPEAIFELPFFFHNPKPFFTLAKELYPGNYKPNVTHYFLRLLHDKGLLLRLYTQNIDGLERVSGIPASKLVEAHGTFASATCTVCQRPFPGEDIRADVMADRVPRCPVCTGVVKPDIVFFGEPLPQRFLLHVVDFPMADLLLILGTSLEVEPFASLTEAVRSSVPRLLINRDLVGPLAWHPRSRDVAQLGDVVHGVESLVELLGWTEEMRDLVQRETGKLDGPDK
Description: Inhibition of AMC-conjugated recombinant human SIRT3 ( 317 to 320 residues) using […] substrate incubated for 45 mins by fluorescence based assay.

Test [7] deals with T3, NAD-dependent protein deacetylase sirtuin-1. Description: Inhibition of AMC-conjugated recombinant human SIRT1 (379 to 382 residues) using […] substrate incubated for 45 mins by fluorescence based assay.
Test [8] has as its target T5, NAD-dependent protein deacetylase sirtuin-2 (Homo sapiens, UniProt Q8IXJ6).
T5 sequence (Q8IXJ6 whole entry): T1 sequence (whole entry)
In words: Inhibition of SIRT2 (unknown origin).

The source made the active and inactive calls. No cut-off for these calls is given here.

Turning to `COc1ccccc1CCNCc1ccc2oc3c(Cl)cccc3c(=O)c2c1`, the result in test [1] was inactive. The inhibition in test [2] was determined as 93.2%. The Activity in test [3] was -22.1%.

The compound `Oc1ccc(/C=C/c2cc(O)cc(O)c2)cc1` yielded an inhibition in test [2] of 83%. Also, the Activity in test [3] (filed as activator) turned out to be 96.6%.

Turning to `COc1ccccc1N1CCN(Cc2ccc3oc4c(Cl)cccc4c(=O)c3c2)CC1`, the result in test [1] was inactive. For the same compound, in test [2], the inhibition came out at 49.5%. The Activity in test [3] was -17.1%.

On to `COc1ccccc1CNCc1ccc2oc3c(Cl)cccc3c(=O)c2c1`, for which the outcome in test [1] was inactive. In test [2], this compound returned an inhibition of 82.1%. Further, in test [3], the Activity was -10.3%.

In test [2], `COc1ccc(OC)c(CN2CCN(Cc3ccc4oc5c(Cl)cccc5c(=O)c4c3)CC2)c1` yielded an inhibition of 55.9%. Moreover, the Activity in test [3] was -12.4%.

On to `COc1ccc(CNCc2ccc3oc4c(Cl)cccc4c(=O)c3c2)cc1OC`, for which the outcome in test [1] was inactive. Besides, the inhibition in test [2] was 82.7%. For the same compound, the Activity in test [3] was -19.5%.

In the case of `CC(C)=CCc1c(O)c(CC=C(C)C)c2oc3c(O)ccc(O)c3c(=O)c2c1O` [GARTANIN], in test [4], the EC50 is 1.79 µM.

On to `COc1cccc(N2CCN(Cc3ccc4oc5c(Cl)cccc5c(=O)c4c3)CC2)c1`, for which, in test [1], the outcome was inactive. Also, the Activity is 17.9% in test [5] and -117% in test [3]. The compound also returned an inhibition in test [2] of 48.5%.

Consider `CC(C)=CCc1c(O)cc2oc3cc(O)c(O)c(CC=C(C)C)c3c(=O)c2c1O`, for which the IC50 was determined as 26.8 µM in test [6] and 22.4 µM in test [7].

Compound `Cc1ccc(C(=O)Nc2ccc(S(=O)(=O)O)c3cc(S(=O)(=O)O)cc(S(=O)(=O)O)c23)cc1NC(=O)c1cccc(NC(=O)Nc2cccc(C(=O)Nc3cc(C(=O)Nc4ccc(S(=O)(=O)O)c5cc(S(=O)(=O)O)cc(S(=O)(=O)O)c45)ccc3C)c2)c1` [SURAMIN] yielded a half-maximal inhibitory concentration (IC50) in test [8] of 24 µM.
